Data published in PMC9599826, “Selecting Multitarget Peptides for Alzheimer’s Disease” (Biomolecules, 2022).

System: human TLR4
Test: TLR4 activation, HEK-Blue hTLR4 SEAP reporter cells
Assay type: cell-based
Settings: 24 h, SEAP production
Protocol: The HEK-Blue hTLR4 cells were used for these experiments as previously described. Cells were cultured in complete growth medium: phenol red-free DMEM high glucose medium supplemented with 1 mM sodium pyruvate, 10% heat-inactivated FBS, 50 U/mL penicillin, 50 μg/mL streptomycin, 1X Glutamax, 100 μg/mL Normocin, and 1X HEK-Blue Selection. All stimulation assays were performed on cells that were passaged 3 to 15 times. Cells were carefully rinsed once with ice-cold PBS to remove residual FBS. Then, 2 mL of pre-warmed PBS was added, and dishes were incubated at 37 °C for 5 min to promote cell detachment. Cells were fully detached from plates with gentle tapping, collected, and centrifuged at 52× g for 5 min. […] In another set of experiments, we determined the effects of peptide candidates on the activation of hTLR4 by S100A9. […] Secreted alkaline phosphatase (SEAP) production was measured in each challenged well by transferring 20 μL of medium to a fresh 96-well plate containing 200 μL of Quanti-Blue detection medium. […] The Quanti-Blue plate was developed at 37 °C, 5% CO2, for 3 h followed by OD recordings at 630 nm using the Synergy2 microplate reader and Gen5 software. […]
Figure 6 TLR4 activation by S100A9 and effects of peptide candidates. (A) SEAP production was measured in cell medium following 24 h incubation with indicated concentrations of ligands. […]

EC50 (read-out: half maximal effective concentration (EC50) for TLR4 activation): 700 pM
Substance: S100A9: Recombinant human calcium binding protein S100A9 (C-terminus 8-His tag); known agonist of TLR4, positive control
concentration giving maximum receptor stimulation: 50 nM
